Format in all cases: functional, cell-based
One test has as its system PC-3. Nature of the test: Antiproliferative activity against human PC3 cells after 72 hrs by MTT assay. To be noted: PC-3, 72 h.
The next test concerns MCF7. Briefly: Antiproliferative activity against human MCF7 cells after 72 hrs by MTT assay. To be noted: MCF7, 72 h.
The test system of a further test is ECa-109 cell line. Nature of the test: Antiproliferative activity against human ECA109 cells after 72 hrs by MTT assay. To be noted: ECa-109, 72 h.
In the next test the test system is MGC-803. Briefly: Antiproliferative activity against human MGC803 cells after 72 hrs by MTT assay. To be noted: MGC-803, 72 h.
The subject of another test is A549. Briefly: Antiproliferative activity against human A549 cells after 72 hrs by MTT assay. The following applies: A549, 72 h.
For a further test, the system named is SMMC-7721. Briefly: Antiproliferative activity against human SMMC7721 cells after 72 hrs by MTT assay. The following applies: SMMC-7721, 72 h.

Molecules are shown by their SMILES.

As to `C=C1C(=O)[C@]23[C@H](O)[C@H]1C[C@H](O)[C@H]2[C@]12CCCC(C)(C)[C@H]1C[C@H]3O[C@@H]2OCCCn1cc(CN2C(=O)S/C(=C\c3ccc(F)cc3)C2=O)nn1`, the IC50 is 13.4 µM in the test on PC-3, 15.7 µM in the test with MCF7, 4.7 µM in the test on ECa-109 cell line and 29.7 µM with MGC-803.

On to `C=C1C(=O)[C@]23[C@H](O)[C@H]1CC[C@H]2[C@@]12CO[C@]3(O)[C@@H](O)[C@@H]1C(C)(C)CC[C@@H]2O` [ORIDONIN], for which the IC50 in the test on PC-3 is 43.9 µM; in the test on MCF7, 64.3 µM; in the test with ECa-109 cell line it was 33.6 µM; in the test with A549 it was 25.4 µM; in the test with SMMC-7721 it was 30.1 µM; in the test on MGC-803, 34.3 µM.

Consider `C=C1C(=O)[C@]23[C@H](O)[C@H]1C[C@H](O)[C@H]2[C@]12CCCC(C)(C)[C@H]1C[C@H]3O[C@@H]2OCCCn1cc(CN2C(=O)S/C(=C\c3ccc(F)c(F)c3)C2=O)nn1`, for which the IC50 in the test on PC-3 stood at 16.1 µM; in the test with MCF7, 4.8 µM; in the test on ECa-109 cell line, 3.3 µM; in the test on MGC-803, 35 µM.

For the molecule `C=C1C(=O)[C@]23[C@H](O)[C@H]1C[C@H](O)[C@H]2[C@]12CCCC(C)(C)[C@H]1C[C@H]3O[C@@H]2OCCCn1cc(CN2C(=O)S/C(=C/CCCCC)C2=O)nn1`, the IC50 in the test on PC-3 was 5.3 µM; with MCF7, 1.9 µM; with ECa-109 cell line, 4.2 µM; with A549 it was 4.8 µM; in the test on SMMC-7721, 5.3 µM; in the test on MGC-803, 1.2 µM.

`C=C1C(=O)[C@]23[C@H](O)[C@H]1C[C@H](O)[C@H]2[C@]12CCCC(C)(C)[C@H]1C[C@H]3O[C@@H]2OCCCn1cc(CSc2nnc(C)s2)nn1`: the IC50 in the test with PC-3 came out at 7.7 µM; in the test on MCF7, 14.6 µM; with ECa-109 cell line, 6.2 µM; with MGC-803, 4.5 µM.

As to `C=C1C(=O)[C@]23[C@H](O)[C@H]1C[C@H](O)[C@H]2[C@]12CCCC(C)(C)[C@H]1C[C@H]3O[C@@H]2OCCCn1cc(CSc2nnnn2C)nn1`, the IC50 was 11.6 µM in the test with PC-3, 13.6 µM with MCF7, 8.6 µM with ECa-109 cell line and 8.9 µM in the test with MGC-803.

As for `C=C1C(=O)[C@]23[C@H](O)[C@H]1C[C@H](O)[C@H]2[C@]12CCCC(C)(C)[C@H]1C[C@H]3O[C@@H]2OCCCn1cc(CN2C(=O)S/C(=C/CC)C2=O)nn1`, the concentration for half-maximal inhibition (IC50) in the test on PC-3 was determined as 8.9 µM; in the test with MCF7, 4.1 µM; in the test with ECa-109 cell line, 2.5 µM; with A549 it was 7.8 µM; in the test with SMMC-7721, 3.4 µM; in the test with MGC-803, 2.1 µM.

As for `C=C1C(=O)[C@]23[C@H](O)[C@H]1C[C@H](O)[C@H]2[C@]12CCCC(C)(C)[C@H]1C[C@H]3O[C@@H]2OCCCn1cc(CN2C(=O)S/C(=C\c3ccc(OC)cc3)C2=O)nn1`, the IC50 with PC-3 came out at 11.5 µM; with MCF7, 8.9 µM; with ECa-109 cell line it was 9.3 µM; with MGC-803, 17.3 µM.

With `C=C1C(=O)[C@]23[C@H](O)[C@H]1C[C@H](O)[C@H]2[C@]12CCCC(C)(C)[C@H]1C[C@H]3O[C@@H]2OCCCn1cc(CSc2ncccn2)nn1`, the IC50 worked out at 5.9 µM in the test with PC-3, 14.9 µM with MCF7, 5 µM in the test with ECa-109 cell line and 5.2 µM in the test on MGC-803.

As to `C=C1C(=O)[C@]23[C@H](O)[C@H]1C[C@H](O)[C@H]2[C@]12CCCC(C)(C)[C@H]1C[C@H]3O[C@@H]2OCCCn1cc(CSc2nc3ccccc3s2)nn1`, the IC50 in the test on PC-3 was found to be 1.6 µM; with MCF7, 4.2 µM; with ECa-109 cell line, 1.4 µM; with A549, 5.8 µM; with SMMC-7721 it was 1.8 µM; in the test on MGC-803, 2.1 µM.

On to `C=C1C(=O)[C@]23[C@H](O)[C@H]1C[C@H](O)[C@H]2[C@]12CCCC(C)(C)[C@H]1C[C@H]3O[C@H]2O`, for which the IC50 in the test with PC-3 was determined as 24.3 µM; in the test on MCF7, 21.1 µM; with ECa-109 cell line, 25.2 µM; in the test on A549, 16.4 µM; in the test on SMMC-7721, 14.6 µM; with MGC-803, 27.1 µM.

Turning to `C=C1C(=O)[C@]23[C@H](O)[C@H]1C[C@H](O)[C@H]2[C@]12CCCC(C)(C)[C@H]1C[C@H]3O[C@@H]2OCCCn1cc(CN2C(=O)S/C(=C\c3ccccc3)C2=O)nn1`, the IC50 in the test with PC-3 turned out to be 13.2 µM; in the test on MCF7 it was 6.6 µM; in the test on ECa-109 cell line, 4.9 µM; in the test on MGC-803, 20 µM.

As for `C=C1C(=O)[C@]23[C@H](O)[C@H]1C[C@H](O)[C@H]2[C@]12CCCC(C)(C)[C@H]1C[C@H]3OC2OCCCN=[N+]=[N-]` (single isomer, unassigned), the IC50 is 10 µM with PC-3; 7.6 µM in the test with MCF7; 10.1 µM in the test with ECa-109 cell line; 13.6 µM in the test on A549; 12 µM with SMMC-7721; 9.7 µM with MGC-803.

Take `C=C1C(=O)[C@]23[C@H](O)[C@H]1C[C@H](O)[C@H]2[C@]12CCCC(C)(C)[C@H]1C[C@H]3O[C@@H]2OCCCn1cc(CSc2nncs2)nn1`: the IC50 in the test with PC-3 was 9.6 µM; in the test on MCF7 it was 15.2 µM; in the test with ECa-109 cell line, 5.6 µM; with MGC-803 it was 5.2 µM.

For the molecule `C=C1C(=O)[C@]23[C@H](O)[C@H]1C[C@H](O)[C@H]2[C@]12CCCC(C)(C)[C@H]1C[C@H]3O[C@@H]2OCCCn1cc(CN2C(=O)S/C(=C\c3ccc([N+](=O)[O-])cc3)C2=O)nn1`, the IC50 in the test with PC-3 was 13.2 µM; with MCF7, 4.9 µM; in the test with ECa-109 cell line, 5.4 µM; with MGC-803 it was 27.8 µM.

`C=C1C(=O)[C@]23[C@H](O)[C@H]1C[C@H](O)[C@H]2[C@]12CCCC(C)(C)[C@H]1C[C@H]3O[C@@H]2OCCCn1cc(CSC2=NCCS2)nn1`: the IC50 was found to be 1.4 µM in the test with PC-3; 2.6 µM in the test on MCF7; 0.8 µM in the test on ECa-109 cell line; 4 µM with A549; 3.5 µM with SMMC-7721; 1.7 µM with MGC-803.

`C=C1C(=O)[C@]23[C@H](O)[C@H]1C[C@H](O)[C@H]2[C@]12CCCC(C)(C)[C@H]1C[C@H]3O[C@@H]2OCCCn1cc(CN2C(=O)S/C(=C\c3ccccc3Cl)C2=O)nn1`: the IC50 was 18.4 µM in the test with PC-3, 7.9 µM in the test on MCF7, 2.6 µM in the test on ECa-109 cell line and 25.9 µM in the test with MGC-803.

Turning to `C=C1C(=O)[C@]23[C@H](O)[C@H]1C[C@H](O)[C@H]2[C@]12CCCC(C)(C)[C@H]1C[C@H]3O[C@@H]2OCCCn1cc(CN2C(=O)CSC2=O)nn1`, the IC50 in the test on PC-3 is 5.8 µM; in the test on MCF7, 9.5 µM; with ECa-109 cell line, 35 µM; in the test on MGC-803 it was greater than 50 µM.

Take `C=C1C(=O)[C@]23[C@H](O)[C@H]1C[C@H](O)[C@H]2[C@]12CCCC(C)(C)[C@H]1C[C@H]3O[C@@H]2OCCCn1cc(CN2C(=O)SC(=C(C)C)C2=O)nn1`: the IC50 is 6.2 µM with PC-3; 4.3 µM in the test with MCF7; 4.9 µM in the test with ECa-109 cell line; 9.2 µM with A549; 5.7 µM with SMMC-7721; 2.5 µM with MGC-803.

As for `C=C1C(=O)[C@]23[C@H](O)[C@H]1C[C@H](O)[C@H]2[C@]12CCCC(C)(C)[C@H]1C[C@H]3O[C@@H]2OCCCn1cc(CN2C(=O)S/C(=C\c3cc(OC)c(OC)c(OC)c3)C2=O)nn1`, the IC50 was found to be 13.9 µM in the test on PC-3, 4.1 µM in the test on MCF7, 11.8 µM in the test with ECa-109 cell line and 10.1 µM in the test with MGC-803.

Values taken from ChEMBL document CHEMBL4265905, “Synthesis and biological evaluation of novel Jiyuan Oridonin A-1,2,3-triazole-azole derivatives as antiproliferative agents” (Eur J Med Chem, 2018).
